Experiment [1] has as its system carrageenin-induced edema. In words: Carrageenin-induced footpad edema method. Particulars: 100 mg/kg oral; 5 hours after λ-carrageenin injection. It counts as in vivo, Wistar rats. The method, then: The anti-inflammatory effect of sphingomyelin was tested by a carrageenin-induced footpad edema method. Specifically, a test subject shown in Table 15 was suspended in an aqueous solution containing 0.5% carboxymethylcellulose and orally administered (100 mg/kg) to male Wistar rats (body weight: 110 to 130 g, 8 individuals per group) according to the method of Winter et al. (Proceedings of the Society for Experimental Biology & Medicine, vol. 111, pp. 554, 1962). […] An aqueous solution containing 0.5% carboxymethylcellulose and no test substance was administered to rats in a control group. A rate of increase in footpad volume (V0) attributed to the injection of λ-carrageenin was measured in the control group in the same way as above. An carrageenin-induced edema inhibition rate (%) was calculated according to the calculation formula: (V0−V1)×100/V0 and used as the anti-inflammatory activity of the test substance. A higher value of this inhibition rate indicates higher anti-inflammatory activity.
A general note: Carrageenan injected into the paw causes an acute inflammation.

Experiment [2] concerns sialomucin content in the saliva. In words: Effect of promoting sialomucin secretion: sialomucin content in rat saliva. It counts as in vivo, SD rats. Particulars: 7th day of experimental diet containing 1% of the substance. The method, then: Seven-week-old male SD rats (manufactured by Charles River Laboratories, Japan, Inc) were raised under conditions involving humidity of 60%, room temperature of 24° C., and light-dark (12 hour/12 hour) control. All the rats were preliminarily raised for 1 week with a standard diet and then divided into 3 groups each containing 12 individuals. These groups were allowed to freely take their respective experimental diets and raised for 1 week. Rat saliva was collected on the 7th day after the administration of experimental diets. A sialomucin content in the saliva was measured by high-performance liquid chromatography. […] In this context, a sialomucin content in the saliva was measured by the following method: 0.2 ml of a Nembutal solution was intramuscularly injected to rats fasted for 2 hours or longer. After anesthesia, a solution of pilocarpine hydrochloride serving as a saliva secretion promoter was intramuscularly injected thereto. […] A sialomucin content in the sialomucin fraction was quantified with a Sialic Acid Fluorescence Labeling Kit (Takara Bio Inc.). […] Free N-acetyl sialic acid or O-acetylated sialic acid was reacted at 55° C. for 2.5 hours by the addition of a DMB reagent as a fluorescence labeling agent and then quantified by high-performance liquid chromatography.

A further experiment deals with cholera toxin. As to conditions: in vivo.

`COc1ccc2c(c1)c(CC(=O)O)c(C)n2C(=O)c1ccc(Cl)cc1` [Indomethacin] came in with an Inhibition rate in experiment [1] of 37.5%. Turning to `CC(=O)N[C@H]1[C@H]([C@H](O)[C@H](O)CO)OC(O)(C(=O)O)C[C@@H]1O` (stereo partly shown) [Sialic acid (derived from milk), Sialic acid], in experiment [1], the Inhibition rate came out at 38.1%.

sialyllactose [SL, reference compound] yielded a Sialomucin content in experiment [2] of 24.9 ± 3.1 µg/µL. Moreover, the Inhibition rate in the experiment with cholera toxin is listed as 37.9 ± 2.9%.

(Values after patent US8486916B2, “Medicine, food and drink or feed containing sphingomyelin” (Megmilk Snow Brand Co., Ltd., priority 2005, dated 2013).)
